Laboratory results taken from patent US20230331792A1, “NEW MULTI-FUNCTIONAL OLIGOPEPTIDES” (ENLITISA (SHANGHAI) PHARMACEUTICAL CO., LTD., priority 2019, published 2023).
Bridge positions count the residues as written; N and C are the ends. Square brackets hold non-standard residues; d marks the D form. Ends that are not written are not given here. I, II: the chains in the order shown. Dopa = N[C@@H](Cc1ccc(O)c(O)c1)C(=O)O; Hyp = O=C(O)[C@@H]1C[C@@H](O)CN1

Key:
[1] = tested on: Human Influenza A Virus H1N1; settings: virus mixed with drug 1 hour, 2-128 μg/mL; Vero cells; viral RNA
[2] = Pharmacokinetics of montelukast with and without sMAP; settings: SD, rat, plasma, 0.2 mg
C57BL/6 mice = experiment: Air pouch model (carrageenan-induced acute inflammation); format: in vivo; set-up: key to Inflammation score / Edema score: 1 = mild, 2 = moderate, 3 = severe; settings: dexamethasone 400 μg/mouse
Description: Healthy adult male C57BL/6 mice weighing between 20 and 30 g were supplied by Changzhou Cvens Experimental Animal Co. Ltd. Prior to any experiments being conducted, the mice were housed under standardized conditions (at a constant temperature or 22±2° C., with alternating 12-hour periods of light and darkness), and were fed on a standard mouse diet with water, for about a week. The mice were randomly divided into 9 groups as described in Table 4, with 7 mice in each group.
General anaesthesia was induced using intraperitoneal delivery of 3% chloral hydrate (Sinopharm Chemical Reagent Co., Ltd., Shanghai, China); 1 mL/10 g of body weight). The hair of the entire dorsum was shaved and depilated one day before sterile air injection.
Air pouches were produced by subcutaneous injection of sterile air (5 mL) into the intrascapular area of the mice. After three days, another injection of air (3 mL) was performed to maintain the pouches. In order to induce acute inflammation, three days after the second injection, animals received an injection of sterile carrageenan solution (CP Kelco, Taixing, Jiangsu Province, China; 1%, 0.5 mL; produced by adding 0.1 g of carrageenan powder into a beaker containing 10 mL of 0.9% saline solution and stirring). Mice were pre-treated with test samples or vehicle 1 hour before and 23 hours after the carrageenan injection into the subcutaneous air pouch. Animals were sacrificed 24 hours after the carrageenan injection.
Skin biopsies were taken from the air pouches. A part of the biopsy was fixed in formalin (produced by adding ultra-pure water to 50 mL of a 40% formaldehyde solution (Nanchang Rain Dew Experimental Equipment Co., Ltd., Nanchang, […] Provence, China) up to a total volume of 500 mL) and analyzed by histological embedding in paraffin wax, sectioning and staining.
The histological specimens were analyzed, and an inflammation score and an edema score were estimated. The inflammation scores were estimated by observing heamatoxylin and eosin (HE) stained slices under an optical microscope. Scores (between 1 to 3 points) were given according to the perceived inflammation level (e.g. in cases where only a small amount of inflammatory cells scattered in the area: 1 point was given (mild); in cases where many inflammatory cells were observed: 2 points were given (moderate); and, in cases with diffuse infiltration: 3 points were given (severe)). A similar scoring system was employed for edema levels (3 points for most severe and 1 point for mild) after overall observation.
After conducting some preliminary experiments to validate the model, an experiment was conducted in which mice were treated by administering test samples or vehicle in accordance with Table 4 below. Compound A and Compound B were dissolved in saline at concentrations indicated in Table 4 below (L=low dose, M=medium dose, H=high dose).
Compound A and Compound B were synthesized as described in Examples 8 and 7 above, respectively. The peptide powders were stored at −20° C. prior to use. Dexamethasone (Dex) was obtained from Shanghai Aladdin Bio-Chem Technology Co., Ltd., Shanghai, China.

SD rats = experiment: Experimental gastric ulcer model (anhydrous alcohol); format: in vivo; settings: omeprazole 2 mg/mL, 4 mg/kg oral gavage once per day for 30 days
Description: SPF grade SD rats were used in this experiment, with 10 rats in each group. According to an evaluation method of health food for gastric ulcer issued by Chinese State Food and Drug Administration, the protective effect of Compound B on acute gastric ulcers induced by anhydrous alcohol was observed after continuous gavage for 30 days.
Omeprazole enteric-coated capsules (20 mg/capsule; Heilongjiang Norgas Pharmaceutical Co., Ltd., China) were opened and the powder was dissolved in water to make a 2 mg/mL solution. Compound B (see Example 7 above) powder was dissolved in water to make two solutions with concentrations of 0.25 mg/mL and 0.75 mg/mL. Administration volumes were […].
All drugs were administrated as shown in Table 13 by oral gavage for 30 consecutive days, once per day. The rats had free access to water. On the 30th day, rats were fasted for 24 hours after the last drug administration. On the 31st day, 1.0 mL/rat of absolute ethanol was given by gavage to each rat in all of the experimental groups except the control group.
1 hour later, all of the rats were sacrificed and dissected to expose the intact stomach, followed by ligation of the pylorus. 10% formaldehyde solution was administered into the stomach by perfusion and fixed for 20 minutes. The stomach was dissociated after fixation and cut open along the greater curvature. The stomach contents were washed off the lining with saline to reveal the gastric mucosa.
The length and width of gastric mucosal bleeding were measured with a Vernier calliper under a stereo microscope or by the naked eye.

person two = experiment: Ulcerative colitis, patient case; format: in vivo, human; settings: oral 5-aminosalicylic acid for 3 days
From the text: person two was diagnosed with an acute attack of ulcerative colitis. […] After this, they were given the same Compound C gel as described in Example 41 above, at the same dose, 3 times over the first two days. The frequent with which they had to go to the toilet reduced to 3 to 4 times a day.

in vivo = settings: SD, rat
Description: The rats were treated by administering test samples.
The rats were anesthetized by 2% isoflurane inhalation. The rats were placed in the supine position, the rectum end stool was extruded and 75% alcohol cotton ball was used to disinfect the anal periphery skin area.
A 2 mL syringe was used to draw back the air bag cavity to ensure that there was no air in the air bag after water filling. The catheter (2-WAY 8Ch/Fr3-5 mm) was inserted into the rats anus at a depth of about 3 cm (2 cm length from the end of the balloon; the tip of the catheter was cut below the position of the urethral catheter tip, and shortened as much as possible while maintaining the integrity of the air cavity. The guide wire was removed, the urethral catheter was sealed with neutral glass glue while ensuring smooth sealing end to reduce the damage to the rectal mucosa).
While the perianal skin was held to fix the catheter and the gavage needle, 1 mL of water was injected with a 2 mL syringe into the airbag cavity in order to expand it, and the needle was then quickly released to observe whether there was gel leakage.
After injection, adhesive tape was wrapped around the tail root to fix the catheter (the catheter was litigated about 3-5 cm from the anus, then cut off after ligation, and an adhesive tape was wrapped around the tail root for fixation. The fixation of the pressure-sensitive adhesive tape is based on the standard of non-looseness of the urinary catheter, which should not be too tight and cause discomfort for animals to bite. The catheter should be fixed by tape twice: the catheter should be knotted the first time, while the remaining catheter should be fixed at the end of the tail the second time. The 3 cm scale on the catheter should be at the anus, and the catheter should not be taken out when the knot is tied). The rats were put back into the cage after administration.
An anal plug was maintained in the rectum for 4 h to extend the retention time of the drug in the animal body. The anal plug dropped within 4 h after the drug was administered, and the approximate time period of the drop was recorded.
Blood samples were processed by coating all centrifuge tubes with EDTA-K2 and storing them either in a refrigerator (2-8° C.) or a cooler filled with ice, protected from light prior to use; the blood that was collected was transferred into the centrifuge tubes and stored in ice box protected from light after having been mixed manually by reversing the tubes at least 5 times. The samples were subsequently centrifuged at 1800 g for 10 minutes at 2 to 8° C. within 2 hours from blood collection. After the centrifugation, the collected plasma samples were transferred into newly labeled centrifuge tubes, aliquoted into two sets, and stored below −70° C. away from light.
AUC, Cmax, Tmax, and any other parameters as needed, were calculated using WinNonlin software. Microsoft Office Excel was used for data statistical analysis, including mean, standard deviation (SD), and coefficient of variation (CV), etc. The difference in pharmacokinetic parameters between the two groups was compared.

I: AKPS[Dopa][Hyp]T[Dopa][Hyp]KKK / II: AKPS[Dopa][Hyp]T[Dopa][Hyp]KK / III: AKPS[Dopa][Hyp]T[Dopa][Hyp]K / IV: AKPS[Dopa][Hyp]T[Dopa][Hyp]K (amide I:11-IV:C, I:12-II:C, II:11-III:C) [Compound C, [(Ala-Lys-Pro-Ser-DOPA-Hyp-Thr-DOPA-Hyp-Lys)2-Lys]2-Lys]
IC50 (virus inhibition rate) [1]: > 32 µg/mL

CC(C)(O)c1ccccc1CC[C@@H](SCC1(CC(=O)O)CC1)c1cccc(/C=C/c2ccc3ccc(Cl)cc3n2)c1 [Montelukast, montelukast sodium]
AUC(0-t) ([2]; female): 229 ng·h/mL
Cmax ([2]; female): 156 ng/mL
Tmax ([2]; female): 0.5 h
half-life ([2]; female): 2.3 h
AUC(0-t) ([2]; male): 238 ng·h/mL
Cmax ([2]; male): 151 ng/mL
Tmax ([2]; male): 0.5 h
half-life ([2]; male): 1.8 h

C[C@@H]1C[C@H]2[C@@H]3CCC4=CC(=O)C=C[C@]4(C)[C@@]3(F)[C@@H](O)C[C@]2(C)[C@@]1(O)C(=O)CO [Dex, Dexamethasone, reference compound]
Sum of the scores (C57BL/6 mice): 2.14
Inflammation score (C57BL/6 mice; 1 h before and 23 h after carrageenan, histology, score 1-3): 0.57
Edema score (C57BL/6 mice; histology, score 1-3): 1.57

COc1ccc2[nH]c([S+]([O-])Cc3ncc(C)c(OC)c3C)nc2c1 (centres unmarked) [Omeprazole, reference compound]
Damage score (SD rats): 20

Nc1ccc(O)c(C(=O)O)c1 [Mesalazine, 5-aminosalicylic acid]
symptoms of ulcerative colitis (person two): symptoms did not change
AUC(0-t) (in vivo; female): 38900 ng·h/mL
Cmax (in vivo; female): 13800 ng/mL
Tmax (in vivo; female): 1.83 h
AUC(0-t) (in vivo; male): 56100 ng·h/mL
Cmax (in vivo; male): 17500 ng/mL
Tmax (in vivo; male): 1.67 h
